In PubChem BioAssay (NCI):
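Tested at 5 concentrations; 48 h exposure; 96-well plates; endpoints linearly interpolated, else capped at highest concentration. GI50: concentration for 50% inhibition of growth. TGI: total growth inhibition.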

Experiments:
Experiment in all cases: NCI tumour cell line growth inhibition, 48 h
786-0 renal = system: 786-0 renal
A498 renal = system: A498 renal
COLO 205 colon = system: COLO 205 colon
HCT-116 colon = system: HCT-116 colon
K-562 leukemia = system: K-562 leukemia
NCI-H23 lung = system: NCI-H23 lung
OVCAR-5 ovarian = system: OVCAR-5 ovarian
SK-MEL-28 melanoma = system: SK-MEL-28 melanoma
SK-MEL-5 melanoma = system: SK-MEL-5 melanoma
UACC-257 melanoma = system: UACC-257 melanoma

Compound	GI50 (786-0 renal) [µM]	TGI (786-0 renal) [µM]	GI50 (A498 renal) [µM]	TGI (A498 renal) [µM]	GI50 (COLO 205 colon) [µM]	TGI (COLO 205 colon) [µM]	GI50 (HCT-116 colon) [µM]	TGI (HCT-116 colon) [µM]	GI50 (K-562 leukemia) [µM]	TGI (K-562 leukemia) [µM]	GI50 (NCI-H23 lung) [µM]	TGI (NCI-H23 lung) [µM]	GI50 (OVCAR-5 ovarian) [µM]	TGI (OVCAR-5 ovarian) [µM]	GI50 (SK-MEL-28 melanoma) [µM]	TGI (SK-MEL-28 melanoma) [µM]	GI50 (SK-MEL-5 melanoma) [µM]	TGI (SK-MEL-5 melanoma) [µM]	GI50 (UACC-257 melanoma) [µM]	TGI (UACC-257 melanoma) [µM]
COC(=O)/C=C/c1cc(O)c2oc(-c3ccc(O)c(O)c3)c(C(=O)OC)c2c1	3.67	16.3	1.95	9.58	8.27	23.6	0.329	9.14	0.0511	26.9	0.43	7.81	3.56	16.5	1.92	11.1	0.221	1.61	2.83	16.5
Oc1ccc(Cl)cc1Cc1cc(Cl)cc(Cl)c1O	8.98	30.1	8.73	29.2	19.5	36.6	3.53	12.9	4.52	28.4	3.32	10.6	11.3	26.6	4.83	31.7	1.85	4.89	5.01	32.5
COC(=O)C1=C(c2ccc3c(c2)OCO3)O[C@H](c2cc(OC)c(OC)c(OC)c2)[C@H]1COC(C)=O		42.3		2.94		3.02		19.6		> 100		17.7		> 100		> 100		7.83		56
COC(=O)C12C3C4C1C1C2C3C41C(=O)OC(C)(C)C (centres undefined)		> 100		> 100		> 100		70.3		> 100		> 100		> 100		> 100		> 100		> 100
CC(C)c1ccc(Nc2ccc3c(OCCCN4CCN(C)CC4)cccc3n2)cc1	11.4	27	16.4	36.8	1.97	3.96	5.9	20.6	2.05	4.48	11.9	26.1	15.6	31.2	1.89	4.32	15.3	30.2	5.65	16.2
CC1OC(n2cc(F)c(=O)[nH]c2=O)C=CC1O (centres undefined)		> 100		> 100		> 100		> 100		> 100		> 100		> 100		> 100		> 100		> 100
Clc1coc2nc3ccccc3c(Nc3ccc4c(c3)OCO4)c12	2.73	> 42.6	1.14	5.82	2.05	30	0.443	11.8	0.498		0.983	22	6.99	> 100	3.49	> 71.4	1.46	5.78	9.15	26.1
C=C(C=O)C1CCC2(C(=O)O)CCC3(C)C(CCC4C5(C)CCC(O)C(C)(C)C5CCC43C)C12 (centres undefined)	2.48	6.73	4.77	14.4	2.64	6.18	1.4	2.83	2.72	> 100	1.63	3.3	2.99	6.82	1.96	4.62	1.52	2.84	2.05	5.48
Cc1ccc(C(SCC(N)C(=O)O)(c2ccccc2)c2ccc(C)cc2)cc1 (centres undefined)	2.21	24.4	0.225	4.5	0.241	0.732	0.0449	7.06	0.266	> 35.2	0.423	23.7	1.11	24.4	2.09	23.7	0.0465	13.8	2.13	> 56.8
C=C(F)C(=O)N1CCN(c2nc(OC[C@@H]3CCCN3C)nc3c2CCN(c2cccc4cccc(Cl)c24)C3)C[C@@H]1CC#N	0.769	2.09	1.39	2.86	0.578	1.98	0.562	1.88	0.421	1.84	< 0.01	1.58	0.485	2.56	1.32	2.72	1.63	3.06	1.57	3.1
O=C1c2ccccc2C(=O)C1(Cl)C1(S(=O)(=O)O)c2ccccc2-c2ccccc21		> 100		> 100		> 100		> 100		> 100		> 100		> 100		> 100		> 100		> 100
Cn1cc(C2=C(c3ccc4ccccc4c3)C(=O)NC2=O)c2ccccc21	> 25	> 25	> 25	> 25	20.8	> 25	15.6	> 25	2.09	> 25	> 25	> 25	> 25	> 25	> 25	> 25	> 25	> 25	> 25	> 25
O=S(=O)([O-])c1ccc2c(c1)-c1nc-2nc2[n-]c(nc3nc(nc4[n-]c(n1)c1ccc(S(=O)(=O)[O-])cc41)-c1cc(S(=O)(=O)[O-])ccc1-3)c1ccc(S(=O)(=O)[O-])cc21.[Cu+2].[Na+]	> 44	> 69.6	> 100	> 100	6.96	> 62	15.8	> 100	0.749	> 50.3	98.4	> 100	> 100	> 100	> 100	> 100	> 100	> 100	> 100	> 100
O=C(c1ccccc1)c1cc(Cl)ccc1OCCCCN1CCN(CCCCOc2ccc(Cl)cc2C(=O)c2ccccc2)CC1	1.96	3.7	15.2	28.6	1.95	4.78	1.79	3.38	1.9	4.87	4.73	18.3	17.9	48.1	11.5	24.2	2.34	4.88	3.07	7.57
Cc1ccc(SC(C)/C=C/NNC2=NC(c3ccccc3)C(c3ccccc3)=NN2)cc1 (centres undefined)		> 100		> 100		> 100		> 100		> 100		> 100		89.1		> 100		31.4		> 100
Cc1ccc(Cl)cc1Nc1nc(C(F)(F)F)ccc1C(=O)N1CCN(c2ccc(F)cc2)CC1	14.7	29.4	6.03	20.2	15.8	30.2	11.9	26.3	9.53	30	10.2	24.2	12.1	30.1	15.6	29.3	12	24.3	19.7	46.5
CS(=O)(=O)N/N=C/CN1C(=O)c2ccccc2C1=O		> 100		> 100		> 100		> 100		> 100		> 100		> 100		> 100		> 100		> 100
Cn1c(=O)c2c(nc(Nc3cc(=O)[nH]c(=O)[nH]3)n2Cc2ccccc2)n(C)c1=O	> 100	> 100	7.97	> 100	> 100	> 100	> 100	> 100	82.5	> 100	> 100	> 100	> 100	> 100	> 100	> 100	48	> 100	> 100	> 100
COc1cc(Nc2cn[nH]c2-c2ccc(Cl)cc2)cc(OC)c1OC	6.8	36.2	4.58	23.8	4.39	21.9	3.73	13.7	2.49	97.2	8.33	> 60.8	15.9	> 77.1	6.45	56.7	3.58	14.6	15.7	> 83.6
CCCCCCCCCC/C=C/CC(=O)SCCNC(=O)CCNC(=O)[C@@H](O)C(C)(C)COP(=O)(O)OP(=O)(O)OCC1OC(n2cnc3c(N)ncnc32)C(O)C1OP(=O)(O)O (some centres undefined)		> 10		> 10		> 10		> 10		> 10		> 10		> 10		> 10		> 10		> 10
Cc1ccc(S(=O)(=O)NCC2CCCCC2=O)cc1 (centres undefined)		> 100		> 100		> 100		> 100		> 100		> 100		> 100		> 100		> 100		57.7
C=C(CCCCC)CN1CCCC1[C@@](C)(O)CC(=O)OCC (some centres undefined)		> 100		> 100		> 100		> 100		> 100		> 100		> 100		> 100		> 100		> 100
CC/C(=C(/c1ccc(OCCN(C)C)cc1)c1ccc(OC(=O)CCCCC(=O)c2c(C)[nH]c(/C=C3\N=C(c4ccc[nH]4)C=C3OC)c2C)cc1)c1ccccc1	4.77	19.2	12.8	26.1	10.7	23.2	3.55	13.9	3.16	12.6	12.7	29.7	10.6	22.5	11.6	23.7	1.61	3.11	12	28.9
O=c1nc2occc2cn1C1CC(O)C(CO)O1 (centres undefined)		> 100		> 100		> 100		> 100		> 100		> 100		> 100		> 100		> 100		> 100
